Among the data in ChEMBL document CHEMBL1137379, “9-{[3-fluoro-2-(hydroxymethyl)cyclopropylidene]methyl}adenines and -guanines. Synthesis and antiviral activity of all stereoisomers1” (J Med Chem, 2006) are EC50, CC50 and Activity values, retold here.

Structures are written as SMILES. Calls of active or inactive are those of the source. No cut-off for these calls is given here.

Experiment [1] relates to Human betaherpesvirus 5. The experiment in a line: Inhibition of HCMV AD169 replication in HFF cells by cytopathic effect assay. The conditions noted are these: Human betaherpesvirus 5, AD169, HFF. It counts as functional, organism-based.
The subject of the next experiment is HFF. The experiment in a line: Cytotoxicity against HFF cell by neutral red uptake assay. It is filed as functional. The note with it: Homo sapiens.
For experiment [2], the system named is Human gammaherpesvirus 4. The experiment in a line: Inhibition of EBV replication in H1 cells by DNA hybridization assay. The conditions noted are these: human gammaherpesvirus 4, H1. It counts as functional, organism-based.
Experiment [3] has as its system Human betaherpesvirus 5. Description: Inhibition of HCMV towne replication in HFF cells by plaque reduction assay. The conditions noted are these: Human betaherpesvirus 5, Towne. It is filed as functional, organism-based.
Experiment [4] deals with T1, Adenosine deaminase (Bos taurus) (UniProt P56658).
T1 sequence (whole entry): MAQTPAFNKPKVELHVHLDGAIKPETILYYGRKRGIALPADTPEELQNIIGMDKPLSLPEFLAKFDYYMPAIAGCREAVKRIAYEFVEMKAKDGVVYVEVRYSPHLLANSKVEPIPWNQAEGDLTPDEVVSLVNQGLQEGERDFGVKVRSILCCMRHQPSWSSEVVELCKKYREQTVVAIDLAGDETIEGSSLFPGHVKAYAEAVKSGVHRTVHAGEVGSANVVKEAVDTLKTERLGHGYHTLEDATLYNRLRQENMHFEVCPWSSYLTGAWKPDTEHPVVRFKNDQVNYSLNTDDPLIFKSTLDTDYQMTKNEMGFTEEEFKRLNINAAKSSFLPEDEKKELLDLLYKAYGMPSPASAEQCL
The experiment in a line: Activity at calf intestine ADA by adenosine deaminase assay after 24 hrs.

Another experiment relates to Human alphaherpesvirus 1. The experiment in a line: Inhibition of HSV1 replication in BSC1 cells by ELISA. It counts as functional, organism-based. The note with it: Human alphaherpesvirus 1, BSC-1.
The next experiment has as its system KB. Description: Cytotoxicity against KB cells. It counts as functional. The conditions noted are these: Homo sapiens.
Experiment [5] relates to Human gammaherpesvirus 4. Description: Inhibition of EBV replication in Daudi cells by viral capsid antigen-ELISA. It is filed as functional, organism-based. The note with it: human gammaherpesvirus 4, Daudi.
The next experiment relates to Daudi. Description: Cytotoxicity against Daudi cells. It is filed as functional. The note with it: Homo sapiens.
Experiment [6] addresses T1, Adenosine deaminase (Bos taurus). The experiment in a line: Activity at calf intestine ADA by adenosine deaminase assay after 48 hrs.
In the next experiment the test system is Hepatitis B virus. Description: Inhibition of HBV replication in 2.2.15 cells by DNA hybridization assay. It is filed as functional, organism-based. The note with it: HepG2 2.2.15.
The test system of the next experiment is HepG2. Description: Cytotoxicity against 2.2.15 cells. It counts as functional. The note with it: Homo sapiens.
The subject of experiment [7] is Human immunodeficiency virus 1. Description: Inhibition of HIV1 LAI replication in MT2 cells by cytopathic effect assay. It counts as functional, organism-based. The note with it: Human immunodeficiency virus 1, LAI.
A further experiment has as its system MT2. Description: Cytotoxicity against MT2 cells. The conditions noted are these: Homo sapiens. It is filed as functional.

Consider `Nc1nc2c(ncn2COC(CO)CO)c(=O)[nH]1` [GANCICLOVIR], for which the results for the EC50 with Human betaherpesvirus 5 [1], in the experiment on Human gammaherpesvirus 4 [2] and in the experiment on Human betaherpesvirus 5 [3] were 150 nM, 5000 nM and 1800 nM, respectively. In the experiment with HFF, this compound yielded a CC50 above 100000 nM.

On to `Nc1ncnc2c1ncn2/C=C1/[C@@H](F)[C@H]1CO` (relative stereo), for which the Activity in experiment [4] turned out to be 50%.

For `Nc1nc2c(ncn2COCCO)c(=O)[nH]1` [ACYCLOVIR], the EC50 was 3500 nM in the experiment on Human alphaherpesvirus 1 and 330 nM in the experiment on Human gammaherpesvirus 4 [5]. Moreover, the CC50 with KB and with Daudi was above 100000 nM in each case.

Take `Nc1ncnc2c1ncn2/C=C1\[C@H](F)[C@H]1CO` (relative stereo): the result in [6] was inactive.

With `Nc1ncnc2c1ncn2/C=C1/[C@@H](F)[C@@H]1CO` (relative stereo), in experiment [4], the Activity was 50%.

As to `Nc1ccn([C@@H]2CS[C@H](CO)O2)c(=O)n1` [LAMIVUDINE], a half-maximal effect in the experiment on Hepatitis B virus (EC50) was put at 20 nM. The compound further registered a CC50 in the experiment on HepG2 above 100000 nM.

`Cc1cn([C@H]2C[C@H](N=[N+]=[N-])[C@@H](CO)O2)c(=O)[nH]c1=O` [ZIDOVUDINE] registered an EC50 in experiment [7] of 20 nM. In the experiment on MT2, the CC50 is above 10000 nM.

In experiment [4], `Nc1ncnc2c1ncn2/C=C1/[C@@H](CO)[C@H]1F` (relative stereo) yielded an Activity of 50%.
